The record followed here is ChEMBL document CHEMBL5303573, “Mapping human microbiome drug metabolism by gut bacteria and their genes” (Nature, 2019).

Each structure is given as a SMILES string.

The conditions of one data set: bacteroides stercoris, 12 h, 2 µM.
Description: The drug is tested on Bacteroides stercoris strain: ATCC43183 for biotransformation. The drug concentrations were measured before and after a 12-h incubation by liquid-chromatography-coupled mass spectrometry (LC–MS)
For `CC(CN1c2ccccc2Sc2ccccc21)N(C)C` (stereo unspecified) [PROMETHAZINE], the “Bacterial Biotransformation” value is “Compound NOT metabolized”.
Still for that read-out and setting: the entry for `O=C(CCCN1CCC2(CC1)C(=O)NCN2c1ccccc1)c1ccc(F)cc1` [SPIPERONE] is “Compound NOT metabolized”; for `CCN(C)C(=O)Oc1cccc([C@H](C)N(C)C)c1.O=C(O)C(O)C(O)C(=O)O` [RIVASTIGMINE TARTRATE] it is “Compound NOT metabolized”.

The next data set can be described thus: The drug is tested on Edwardsiella tarda strain: ATCC23685 for biotransformation. The drug concentrations were measured before and after a 12-h incubation by liquid-chromatography-coupled mass spectrometry (LC–MS). The conditions noted are these: 2 µM.
In the case of `CC(CN1c2ccccc2Sc2ccccc21)N(C)C` (stereo unspecified) [PROMETHAZINE], the “Bacterial Biotransformation” value is “Compound NOT metabolized”.
Consider `O=C(CCCN1CCC2(CC1)C(=O)NCN2c1ccccc1)c1ccc(F)cc1` [SPIPERONE], for which the “Bacterial Biotransformation” value is given as “Compound NOT metabolized”.
On to `CCN(C)C(=O)Oc1cccc([C@H](C)N(C)C)c1.O=C(O)C(O)C(O)C(=O)O` [RIVASTIGMINE TARTRATE], for which the “Bacterial Biotransformation” value was “Compound NOT metabolized”.

A further data set in a line: The drug is tested on Bacteroides fragilis strain: HMW610 for biotransformation. The drug concentrations were measured before and after a 12-h incubation by liquid-chromatography-coupled mass spectrometry (LC–MS). Particulars: 2 µM.
Regarding `CC(CN1c2ccccc2Sc2ccccc21)N(C)C` (stereo unspecified) [PROMETHAZINE], the “Bacterial Biotransformation” value is “Compound NOT metabolized”.
In the case of `O=C(CCCN1CCC2(CC1)C(=O)NCN2c1ccccc1)c1ccc(F)cc1` [SPIPERONE], the “Bacterial Biotransformation” value is “Compound NOT metabolized”.
As for `CCN(C)C(=O)Oc1cccc([C@H](C)N(C)C)c1.O=C(O)C(O)C(O)C(=O)O` [RIVASTIGMINE TARTRATE], the “Bacterial Biotransformation” value was “Compound NOT metabolized”.

A further data set can be described thus: The drug is tested on Collinsella intestinalis strain: DSM13280 for biotransformation. The drug concentrations were measured before and after a 12-h incubation by liquid-chromatography-coupled mass spectrometry (LC–MS). The conditions noted are these: 2 µM.
Regarding `CC(CN1c2ccccc2Sc2ccccc21)N(C)C` (stereo unspecified) [PROMETHAZINE], the “Bacterial Biotransformation” value is “Compound NOT metabolized”.
The same measure, in the same setting: the entry for `O=C(CCCN1CCC2(CC1)C(=O)NCN2c1ccccc1)c1ccc(F)cc1` [SPIPERONE] is “Compound NOT metabolized”; for `CCN(C)C(=O)Oc1cccc([C@H](C)N(C)C)c1.O=C(O)C(O)C(O)C(=O)O` [RIVASTIGMINE TARTRATE] it is “Compound NOT metabolized”.

For another data set the following is noted: enterocloster bolteae, 12 h, 2 µM.
Description: The drug is tested on Clostridium bolteae strain: ATCCBAA-613 for biotransformation. The drug concentrations were measured before and after a 12-h incubation by liquid-chromatography-coupled mass spectrometry (LC–MS)
With `CC(CN1c2ccccc2Sc2ccccc21)N(C)C` (stereo unspecified) [PROMETHAZINE], the “Bacterial Biotransformation” value is on record as “Compound NOT metabolized”.
Turning to `O=C(CCCN1CCC2(CC1)C(=O)NCN2c1ccccc1)c1ccc(F)cc1` [SPIPERONE], the “Bacterial Biotransformation” value is reported as “Compound NOT metabolized”.

Another data set in a line: The drug is tested on Bacteroides sp. WH2 strain: WH2 for biotransformation. The drug concentrations were measured before and after a 12-h incubation by liquid-chromatography-coupled mass spectrometry (LC–MS). The conditions noted are these: bacteroides sp. wh2, 12 h, 2 µM.
With `CC(CN1c2ccccc2Sc2ccccc21)N(C)C` (stereo unspecified) [PROMETHAZINE], the “Bacterial Biotransformation” value is reported as “Compound NOT metabolized”.
As for `O=C(CCCN1CCC2(CC1)C(=O)NCN2c1ccccc1)c1ccc(F)cc1` [SPIPERONE], the “Bacterial Biotransformation” value is reported as “Compound NOT metabolized”.
As for `CCN(C)C(=O)Oc1cccc([C@H](C)N(C)C)c1.O=C(O)C(O)C(O)C(=O)O` [RIVASTIGMINE TARTRATE], the “Bacterial Biotransformation” value is reported as “Compound NOT metabolized”.

The next data set is described as follows: The drug is tested on Bifidobacterium longum subsp. Infantis strain: CCUG52486 for biotransformation. The drug concentrations were measured before and after a 12-h incubation by liquid-chromatography-coupled mass spectrometry (LC–MS). Particulars: 2 µM.
For the compound `CC(CN1c2ccccc2Sc2ccccc21)N(C)C` (stereo unspecified) [PROMETHAZINE], the “Bacterial Biotransformation” value is on record as “Compound NOT metabolized”.
Turning to `O=C(CCCN1CCC2(CC1)C(=O)NCN2c1ccccc1)c1ccc(F)cc1` [SPIPERONE], the “Bacterial Biotransformation” value was “Compound NOT metabolized”.
For `CCN(C)C(=O)Oc1cccc([C@H](C)N(C)C)c1.O=C(O)C(O)C(O)C(=O)O` [RIVASTIGMINE TARTRATE], the “Bacterial Biotransformation” value is on record as “Compound NOT metabolized”.

Another data set is described as follows: The drug is tested on Providencia stuartii strain: ATCC25827 for biotransformation. The drug concentrations were measured before and after a 12-h incubation by liquid-chromatography-coupled mass spectrometry (LC–MS). The conditions noted are these: 2 µM.
Take `CC(CN1c2ccccc2Sc2ccccc21)N(C)C` (stereo unspecified) [PROMETHAZINE]: the “Bacterial Biotransformation” value is given as “Compound NOT metabolized”.
In the case of `CCN(C)C(=O)Oc1cccc([C@H](C)N(C)C)c1.O=C(O)C(O)C(O)C(=O)O` [RIVASTIGMINE TARTRATE], the “Bacterial Biotransformation” value is reported as “Compound NOT metabolized”.

A short description of a further data set: The drug is tested on Collinsella aerofaciens strain: ATCC25986 for biotransformation. The drug concentrations were measured before and after a 12-h incubation by liquid-chromatography-coupled mass spectrometry (LC–MS). Particulars: 2 µM.
On to `CC(CN1c2ccccc2Sc2ccccc21)N(C)C` (stereo unspecified) [PROMETHAZINE], for which the “Bacterial Biotransformation” value is reported as “Compound NOT metabolized”.
Take `O=C(CCCN1CCC2(CC1)C(=O)NCN2c1ccccc1)c1ccc(F)cc1` [SPIPERONE]: the “Bacterial Biotransformation” value is “Compound NOT metabolized”.
On to `CCN(C)C(=O)Oc1cccc([C@H](C)N(C)C)c1.O=C(O)C(O)C(O)C(=O)O` [RIVASTIGMINE TARTRATE], for which the “Bacterial Biotransformation” value was “Compound NOT metabolized”.

The next data set can be described thus: The drug is tested on Parabacteroides merdae strain: ATCC43184 for biotransformation. The drug concentrations were measured before and after a 12-h incubation by liquid-chromatography-coupled mass spectrometry (LC–MS). Particulars: 2 µM.
Take `CC(CN1c2ccccc2Sc2ccccc21)N(C)C` (stereo unspecified) [PROMETHAZINE]: the “Bacterial Biotransformation” value is on record as “Compound NOT metabolized”.
As for `O=C(CCCN1CCC2(CC1)C(=O)NCN2c1ccccc1)c1ccc(F)cc1` [SPIPERONE], the “Bacterial Biotransformation” value is given as “Compound NOT metabolized”.
On the same count and under the same terms, the entry for `CCN(C)C(=O)Oc1cccc([C@H](C)N(C)C)c1.O=C(O)C(O)C(O)C(=O)O` [RIVASTIGMINE TARTRATE] is “Compound NOT metabolized”.

The nature of a further data set: The drug is tested on Bacteroides pectinophilus strain: ATCC43243 for biotransformation. The drug concentrations were measured before and after a 12-h incubation by liquid-chromatography-coupled mass spectrometry (LC–MS). Particulars: 2 µM.
On to `CC(CN1c2ccccc2Sc2ccccc21)N(C)C` (stereo unspecified) [PROMETHAZINE], for which the “Bacterial Biotransformation” value is “Compound NOT metabolized”.
The same measure, in the same setting: the same measure for `O=C(CCCN1CCC2(CC1)C(=O)NCN2c1ccccc1)c1ccc(F)cc1` [SPIPERONE]: “Compound NOT metabolized”; for `CCN(C)C(=O)Oc1cccc([C@H](C)N(C)C)c1.O=C(O)C(O)C(O)C(=O)O` [RIVASTIGMINE TARTRATE]: “Compound NOT metabolized”.

For the next data set the following is noted: bacteroides eggerthii, 12 h, 2 µM.
Description: The drug is tested on Bacteroides eggerthii strain: DSM20697 for biotransformation. The drug concentrations were measured before and after a 12-h incubation by liquid-chromatography-coupled mass spectrometry (LC–MS)
`CC(CN1c2ccccc2Sc2ccccc21)N(C)C` (stereo unspecified) [PROMETHAZINE]: the “Bacterial Biotransformation” value is “Compound NOT metabolized”.
`O=C(CCCN1CCC2(CC1)C(=O)NCN2c1ccccc1)c1ccc(F)cc1` [SPIPERONE]: the “Bacterial Biotransformation” value is “Compound NOT metabolized”.
With `CCN(C)C(=O)Oc1cccc([C@H](C)N(C)C)c1.O=C(O)C(O)C(O)C(=O)O` [RIVASTIGMINE TARTRATE], the “Bacterial Biotransformation” value is “Compound NOT metabolized”.

The conditions of another data set: bacteroides intestinalis, 12 h, 2 µM.
Description: The drug is tested on Bacteroides intestinalis strain: DSM17393 for biotransformation. The drug concentrations were measured before and after a 12-h incubation by liquid-chromatography-coupled mass spectrometry (LC–MS)
Regarding `CC(CN1c2ccccc2Sc2ccccc21)N(C)C` (stereo unspecified) [PROMETHAZINE], the “Bacterial Biotransformation” value is reported as “Compound NOT metabolized”.
`O=C(CCCN1CCC2(CC1)C(=O)NCN2c1ccccc1)c1ccc(F)cc1` [SPIPERONE]: the “Bacterial Biotransformation” value is reported as “Compound NOT metabolized”.
For `CCN(C)C(=O)Oc1cccc([C@H](C)N(C)C)c1.O=C(O)C(O)C(O)C(=O)O` [RIVASTIGMINE TARTRATE], the “Bacterial Biotransformation” value is “Compound NOT metabolized”.

The conditions of the next data set: limosilactobacillus reuteri cf48-3a, 12 h, 2 µM.
Description: The drug is tested on Lactobacillus reuteri CF48-3A strain: BEI HM-102 for biotransformation. The drug concentrations were measured before and after a 12-h incubation by liquid-chromatography-coupled mass spectrometry (LC–MS)
For `CC(CN1c2ccccc2Sc2ccccc21)N(C)C` (stereo unspecified) [PROMETHAZINE], the “Bacterial Biotransformation” value was “Compound NOT metabolized”.
Take `O=C(CCCN1CCC2(CC1)C(=O)NCN2c1ccccc1)c1ccc(F)cc1` [SPIPERONE]: the “Bacterial Biotransformation” value is listed as “Compound NOT metabolized”.
The same measure, in the same setting: the entry for `CCN(C)C(=O)Oc1cccc([C@H](C)N(C)C)c1.O=C(O)C(O)C(O)C(=O)O` [RIVASTIGMINE TARTRATE] is “Compound NOT metabolized”.

A further data set is described as follows: The drug is tested on Anaerococcus hydrogenalis strain: DSM7454 for biotransformation. The drug concentrations were measured before and after a 12-h incubation by liquid-chromatography-coupled mass spectrometry (LC–MS). Particulars: 2 µM.
With `CC(CN1c2ccccc2Sc2ccccc21)N(C)C` (stereo unspecified) [PROMETHAZINE], the “Bacterial Biotransformation” value is given as “Compound NOT metabolized”.
Still for that read-out and setting: the entry for `O=C(CCCN1CCC2(CC1)C(=O)NCN2c1ccccc1)c1ccc(F)cc1` [SPIPERONE] is “Compound NOT metabolized”; for `CCN(C)C(=O)Oc1cccc([C@H](C)N(C)C)c1.O=C(O)C(O)C(O)C(=O)O` [RIVASTIGMINE TARTRATE] it is “Compound NOT metabolized”.

The nature of another data set: The drug is tested on Clostridium asparagiforme strain: DSM15981 for biotransformation. The drug concentrations were measured before and after a 12-h incubation by liquid-chromatography-coupled mass spectrometry (LC–MS). In kind it is ADME. More on the design: dose 2 uM, timepoint 0 vs 12 hours. The conditions noted are these: enterocloster asparagiformis, 2 µM.
As for `CC(CN1c2ccccc2Sc2ccccc21)N(C)C` (stereo unspecified) [PROMETHAZINE], the “Bacterial Biotransformation” value is given as “Compound NOT metabolized”.
Turning to `O=C(CCCN1CCC2(CC1)C(=O)NCN2c1ccccc1)c1ccc(F)cc1` [SPIPERONE], the “Bacterial Biotransformation” value is “Compound NOT metabolized”.
Same read-out and setting: the entry for `CCN(C)C(=O)Oc1cccc([C@H](C)N(C)C)c1.O=C(O)C(O)C(O)C(=O)O` [RIVASTIGMINE TARTRATE] is “Compound NOT metabolized”.

Another data set in a line: The drug is tested on Ruminococcus gnavus strain: ATCC29149 for biotransformation. The drug concentrations were measured before and after a 12-h incubation by liquid-chromatography-coupled mass spectrometry (LC–MS). Particulars: mediterraneibacter gnavus, 2 µM.
For the compound `CC(CN1c2ccccc2Sc2ccccc21)N(C)C` (stereo unspecified) [PROMETHAZINE], the “Bacterial Biotransformation” value is given as “Compound NOT metabolized”.
`O=C(CCCN1CCC2(CC1)C(=O)NCN2c1ccccc1)c1ccc(F)cc1` [SPIPERONE]: the “Bacterial Biotransformation” value is given as “Compound NOT metabolized”.
Regarding `CCN(C)C(=O)Oc1cccc([C@H](C)N(C)C)c1.O=C(O)C(O)C(O)C(=O)O` [RIVASTIGMINE TARTRATE], the “Bacterial Biotransformation” value is “Compound NOT metabolized”.

A further data set is described as follows: The drug is tested on Bacteroides coprophilus strain: DSM18228 for biotransformation. The drug concentrations were measured before and after a 12-h incubation by liquid-chromatography-coupled mass spectrometry (LC–MS). The conditions noted are these: 2 µM.
For `O=C(CCCN1CCC2(CC1)C(=O)NCN2c1ccccc1)c1ccc(F)cc1` [SPIPERONE], the “Bacterial Biotransformation” value is listed as “Compound NOT metabolized”.

A short description of the next data set: The drug is tested on Bacteroides dorei strain: DSM17855 for biotransformation. The drug concentrations were measured before and after a 12-h incubation by liquid-chromatography-coupled mass spectrometry (LC–MS). The conditions noted are these: phocaeicola dorei, 2 µM.
On to `O=C(CCCN1CCC2(CC1)C(=O)NCN2c1ccccc1)c1ccc(F)cc1` [SPIPERONE], for which the “Bacterial Biotransformation” value is recorded as “Compound NOT metabolized”.
